In US8889354B2, “Methods for the identification, assessment, and treatment of patients with cancer therapy” (Millennium Pharmaceuticals, Inc., priority 2005, dated 2014):
Read-outs that look alike come from different tables or passages of the source.

What was measured:
multiple myeloma [1] = experiment: Response of the pharmacogenomic patient subset (studies 024, 025, 039, 040), EBMT criteria; format: in vivo, human; conditions: for NP, number of patients classified as progression / NR, number of patients classified as responder / NS, number of patients classified as stable disease: best response, discovery samples
Description: Patients assigned to the high-dose dexamethasone group received treatment for a maximum of 280 days. Patients in this treatment group received up to four 5-week treatment cycles, followed by up to five 4-week treatment cycles. Within each 5-week treatment cycle, the patient received dexamethasone 40 mg/day PO, once daily on Days 1 to 4, 9 to 12, and 17 to 20 of a 35-day cycle. Within each 4-week treatment cycle, the patient received dexamethasone 40 mg/day PO once daily on Days 1 to 4 of a 28 day cycle.
Pharmacogenomic tumor samples (bone marrow aspirate) were collected from patients for evaluation of the expression of global mRNA levels.
For those patients who participated in the pharmacogenomic portion of the study, correlation between RNA expression levels and response to therapy were evaluated descriptively. In addition, duration of response, time to disease progression, quality of life, and overall patient survival may be analyzed using RNA expression as a factor.
A total of 224 patient samples were assessed for pharmacogenomic analyses. […] All pharmacogenomic analyses relied on the European Group for Blood and Marrow Transplant (EBMT) criteria of response category.
The data set consisted of discovery samples matched with the patient's outcome as measured by best response and time to disease progression. For best response, each patient was classified as responder (NR), stable disease (NS), or progression (NP). For marker identification, the three response classes were further grouped into responders vs. non-responders (stable and progression) (NP+S), responders vs. progression, or progression vs. others (stable and responders) (NR+S). The analyses further separated the patients based on the treatment they received. […] Thus, the responder vs. non-responder analysis utilizes 79 vs. 84 samples. The responder vs. progression analysis utilizes 79 vs. 41 and the progression vs. other analysis utilizes 41 vs. 122 samples. For the dexamethasone analysis NR=25, NS=16, and NP=21. Accordingly, the responder vs. non-responder analysis utilizes 25 vs. 37 samples. The responder vs. progression analysis utilizes 25 vs. 21 and the progression vs. other analysis utilizes 21 vs. 41 samples.

[2] = test system: relapsed multiple myeloma; conditions: cited from earlier work
multiple myeloma [3] = conditions: bortezomib alone, cited from earlier work

CC(C)C[C@H](NC(=O)[C@H](Cc1ccccc1)NC(=O)c1cnccn1)B(O)O [bortezomib, N-pyrazinecarbonyl-L-phenylalanine-L-leucineboronic acid]
CR, number of patients (multiple myeloma [1]; Study 024): 1
IE, number of patients (multiple myeloma [1]; Study 024): 0
MR, number of patients (multiple myeloma [1]; Study 024): 0
NC, number of patients (multiple myeloma [1]; Study 024): 1
PD, number of patients (multiple myeloma [1]; Study 024): 4
PR, number of patients (multiple myeloma [1]; Study 024): 1
CR, number of patients (multiple myeloma [1]; Study 025): 2
IE, number of patients (multiple myeloma [1]; Study 025): 5
MR, number of patients (multiple myeloma [1]; Study 025): 3
NC, number of patients (multiple myeloma [1]; Study 025): 10
PD, number of patients (multiple myeloma [1]; Study 025): 14
PR, number of patients (multiple myeloma [1]; Study 025): 10
CR, number of patients (multiple myeloma [1]; Study 040): 1
IE, number of patients (multiple myeloma [1]; Study 040): 2
MR, number of patients (multiple myeloma [1]; Study 040): 6
NC, number of patients (multiple myeloma [1]; Study 040): 13
PD, number of patients (multiple myeloma [1]; Study 040): 8
PR, number of patients (multiple myeloma [1]; Study 040): 20
NP, number of patients classified as progression (multiple myeloma [1]): 41
NR, number of patients classified as responder (multiple myeloma [1]): 79
NS, number of patients classified as stable disease (multiple myeloma [1]): 43
CR+PR rate (multiple myeloma [1]; pharmacogenomic patient set): 35%
overall response rate (multiple myeloma [1]; pharmacogenomic patient set): 46.4%
CR+PR rate ([2]; bortezomib 1.0 mg/m^2): 30%
CR+PR rate ([2]; bortezomib 1.3 mg/m^2): 38%
CR+PR rate (multiple myeloma [3]; 53 of 193 patients): 27%
overall response rate (CR+PR+MR) (multiple myeloma [3]; 67 of 193 patients): 35%

C[C@@H]1C[C@H]2[C@@H]3CCC4=CC(=O)C=C[C@]4(C)[C@@]3(F)[C@@H](O)C[C@]2(C)[C@@]1(O)C(=O)CO [dexamethasone]
NP, number of patients classified as progression (multiple myeloma [1]): 21
NR, number of patients classified as responder (multiple myeloma [1]): 25
NS, number of patients classified as stable disease (multiple myeloma [1]): 16
